From patent US7709636B2, “Pyrazole sulfonylurea compound and herbicide” (Nissan Chemical Industries, Ltd., priority 2004, dated 2010)

Columns and labels:
direct sown rice [1] = test: Herbicidal effect test by soil treatment; type: in vivo, Oryza sativa; settings: 1.6 g/a, 3 weeks after treatment
How it was run: (§1)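 Read-out is a visual herbicidal-effect rating taken 3 weeks post-treatment. Plants grew from seed sown in sterilized diluvial soil, covered with about 1.5 cm soil, then surface-sprayed with water-diluted wettable powder at a predetermined formulation amount.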

direct sown rice [2] = test: Herbicidal effect test by foliage treatment; type: in vivo, Oryza sativa; settings: 1.6 g/a; foliage treatment after growth of 14 days; 3 weeks after treatment
How it was run: (§2)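 Herbicidal effect was rated 3 weeks after a uniform foliar spray of wettable powder diluted in water to a predetermined formulation amount. Plants had been grown 14 days from seed in sterilized diluvial soil in a greenhouse at 25 to 30° C.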

Chenopodium album [3] = test: Herbicidal effect test by foliage treatment; type: in vivo; settings: 1.6 g/a; foliage treatment after growth of 14 days; 3 weeks after treatment
How it was run: as §2

Avena fatua [4] = test: Herbicidal effect test by foliage treatment; type: in vivo; settings: 1.6 g/a; foliage treatment after growth of 14 days; 3 weeks after treatment
How it was run: as §2

corn (Zea mays) [5] = test: Herbicidal effect test by foliage treatment; type: in vivo; settings: 1.6 g/a; foliage treatment after growth of 14 days; 3 weeks after treatment
How it was run: as §2

soybean (Glycine max) [6] = test: Herbicidal effect test by foliage treatment; type: in vivo; settings: 1.6 g/a; foliage treatment after growth of 14 days; 3 weeks after treatment
How it was run: as §2

Abutilon avicennae [7] = test: Herbicidal effect test by foliage treatment; type: in vivo; settings: 1.6 g/a; foliage treatment after growth of 14 days; 3 weeks after treatment
How it was run: as §2

Digitaria adscendes [8] = test: Herbicidal effect test by foliage treatment; type: in vivo; settings: 1.6 g/a; foliage treatment after growth of 14 days; 3 weeks after treatment
How it was run: as §2

Stellaria media [9] = test: Herbicidal effect test by foliage treatment; type: in vivo; settings: 1.6 g/a; foliage treatment after growth of 14 days; 3 weeks after treatment
How it was run: as §2

Amaranthus retroflexus [10] = test: Herbicidal effect test by foliage treatment; type: in vivo; settings: 1.6 g/a; foliage treatment after growth of 14 days; 3 weeks after treatment
How it was run: as §2

Ambrosia elatior [11] = test: Herbicidal effect test by foliage treatment; type: in vivo; settings: 1.6 g/a; foliage treatment after growth of 14 days; 3 weeks after treatment
How it was run: as §2

Echinochloa crus-galli [12] = test: Herbicidal effect test by foliage treatment; type: in vivo; settings: 1.6 g/a; foliage treatment after growth of 14 days; 3 weeks after treatment
How it was run: as §2

Black-grass [13] = test: Herbicidal effect test by foliage treatment; type: in vivo; settings: 1.6 g/a; foliage treatment after growth of 14 days; 3 weeks after treatment
How it was run: as §2

Setaria viridis [14] = test: Herbicidal effect test by foliage treatment; type: in vivo; settings: 1.6 g/a; foliage treatment after growth of 14 days; 3 weeks after treatment
How it was run: as §2

[15] = system: Triticum aestivum (wheat); test: Herbicidal effect test by foliage treatment; type: in vivo; settings: 1.6 g/a; foliage treatment after growth of 14 days; 3 weeks after treatment
How it was run: as §2

Beta vulgaris (beet) [16] = test: Herbicidal effect test by foliage treatment; type: in vivo; settings: 1.6 g/a; foliage treatment after growth of 14 days; 3 weeks after treatment
How it was run: as §2

Polygonum blumei [17] = test: Herbicidal effect test by foliage treatment; type: in vivo; settings: 1.6 g/a; foliage treatment after growth of 14 days; 3 weeks after treatment
How it was run: as §2

Chenopodium album [18] = test: Herbicidal effect test by soil treatment; type: in vivo; settings: 1.6 g/a, 3 weeks after treatment
How it was run: as §1

Avena fatua [19] = test: Herbicidal effect test by soil treatment; type: in vivo; settings: 1.6 g/a, 3 weeks after treatment
How it was run: as §1

corn (Zea mays) [20] = test: Herbicidal effect test by soil treatment; type: in vivo; settings: 1.6 g/a, 3 weeks after treatment
How it was run: as §1

soybean (Glycine max) [21] = test: Herbicidal effect test by soil treatment; type: in vivo; settings: 1.6 g/a, 3 weeks after treatment
How it was run: as §1

Abutilon avicennae [22] = test: Herbicidal effect test by soil treatment; type: in vivo; settings: 1.6 g/a, 3 weeks after treatment
How it was run: as §1

Digitaria adscendes [23] = test: Herbicidal effect test by soil treatment; type: in vivo; settings: 1.6 g/a, 3 weeks after treatment
How it was run: as §1

Stellaria media [24] = test: Herbicidal effect test by soil treatment; type: in vivo; settings: 1.6 g/a, 3 weeks after treatment
How it was run: as §1

Amaranthus retroflexus [25] = test: Herbicidal effect test by soil treatment; type: in vivo; settings: 1.6 g/a, 3 weeks after treatment
How it was run: as §1

Ambrosia elatior [26] = test: Herbicidal effect test by soil treatment; type: in vivo; settings: 1.6 g/a, 3 weeks after treatment
How it was run: as §1

Echinochloa crus-galli [27] = test: Herbicidal effect test by soil treatment; type: in vivo; settings: 1.6 g/a, 3 weeks after treatment
How it was run: as §1

Black-grass [28] = test: Herbicidal effect test by soil treatment; type: in vivo; settings: 1.6 g/a, 3 weeks after treatment
How it was run: as §1

Setaria viridis [29] = test: Herbicidal effect test by soil treatment; type: in vivo; settings: 1.6 g/a, 3 weeks after treatment
How it was run: as §1

[30] = system: Triticum aestivum (wheat); test: Herbicidal effect test by soil treatment; type: in vivo; settings: 1.6 g/a, 3 weeks after treatment
How it was run: as §1

Beta vulgaris (beet) [31] = test: Herbicidal effect test by soil treatment; type: in vivo; settings: 1.6 g/a, 3 weeks after treatment
How it was run: as §1

Polygonum blumei [32] = test: Herbicidal effect test by soil treatment; type: in vivo; settings: 1.6 g/a, 3 weeks after treatment
How it was run: as §1

Monochoria vaginalis [33] = test: Herbicidal effect test in submerged condition by treatment before weed-generation (1); type: in vivo; settings: 0.64 g/a, water surface treated on day of sowing, 3 weeks after treatment
How it was run: (§3)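 Scores run 0 (≤5% effect) to 5 (≥90%, near-complete death), assessed visually 3 weeks post-treatment. Submerged paddy soil, water 4 cm deep, seeds sown and rice at 2.5th leaf stage transplanted; formulation diluted and poured onto water surface at sowing; greenhouse 25 to 30° C.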

Echinochloa crus-galli [34] = test: as above; type: in vivo; settings: 0.64 g/a, water surface treated on day of sowing, 3 weeks after treatment
How it was run: as §3

Scirpus juncoides [35] = test: as above; type: in vivo; settings: 0.64 g/a, water surface treated on day of sowing, 3 weeks after treatment
How it was run: as §3

Monochoria vaginalis [36] = test: Herbicidal effect test in submerged condition by treatment during weed-growth stage (1); type: in vivo; settings: 0.64 g/a, treated at 1st to 2nd leaf stage, 3 weeks after treatment
How it was run: (§4)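 Paddy-soil pots flooded to 4 cm water depth were sown and grown in a greenhouse at 25 to 30° C until weeds reached 1st to 2nd leaf stage. A wettable powder diluted in water to a predetermined formulation amount was applied to the water surface. Herbicidal effect was scored 3 weeks after treatment against set criteria.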

Echinochloa crus-galli [37] = test: as above; type: in vivo; settings: 0.64 g/a, treated at 1st to 2nd leaf stage, 3 weeks after treatment
How it was run: as §4

Scirpus juncoides [38] = test: as above; type: in vivo; settings: 0.64 g/a, treated at 1st to 2nd leaf stage, 3 weeks after treatment
How it was run: as §4

Structure (SMILES): COc1cc(OC)nc(NC(=O)NS(=O)(=O)c2c(C3=NOCC(C)(C)O3)c(C)nn2C)n1 [Compound 7, N-((4,6-dimethoxypyrimidin-2-yl)aminocarbonyl)-4-(5,5-dimethyl-5H,6H-1,4,2-dioxadin-3-yl)-1,3-dimethylpyrazole-5-sulfonamide]
- herbicidal effect, d: direct sown rice (direct sown rice [1]): 5 (Herbicidal rate 90% or more (almost complete death))
- herbicidal effect, d: direct sown rice (direct sown rice [2]): 2 (Herbicidal rate 20% or more and less than 40%)
- herbicidal effect, K: Chenopodium album (Chenopodium album [3]): 5 (Herbicidal rate 90% or more (almost complete death))
- herbicidal effect, F: Avena fatua (Avena fatua [4]): 5 (Herbicidal rate 90% or more (almost complete death))
- herbicidal effect, b: corn (Zea mays) (corn (Zea mays) [5]): 5 (Herbicidal rate 90% or more (almost complete death))
- herbicidal effect, c: soybean (Glycine max) (soybean (Glycine max) [6]): 5 (Herbicidal rate 90% or more (almost complete death))
- herbicidal effect, H: Abutilon avicennae (Abutilon avicennae [7]): 5 (Herbicidal rate 90% or more (almost complete death))
- herbicidal effect, D: Digitaria adscendes (Digitaria adscendes [8]): 5 (Herbicidal rate 90% or more (almost complete death))
- herbicidal effect, M: Stellaria media (Stellaria media [9]): 5 (Herbicidal rate 90% or more (almost complete death))
- herbicidal effect, J: Amaranthus retroflexus (Amaranthus retroflexus [10]): 4 (Herbicidal rate 70% or more and less than 90%)
- herbicidal effect, I: Ambrosia elatior (Ambrosia elatior [11]): 5 (Herbicidal rate 90% or more (almost complete death))
- herbicidal effect, A: Echinochloa crus-galli (Echinochloa crus-galli [12]): 5 (Herbicidal rate 90% or more (almost complete death))
- herbicidal effect, G: Black-grass (Black-grass [13]): 5 (Herbicidal rate 90% or more (almost complete death))
- herbicidal effect, E: Setaria viridis (Setaria viridis [14]): 4 (Herbicidal rate 70% or more and less than 90%)
- herbicidal effect, e: Triticum aestivum (wheat) [15]: 5 (Herbicidal rate 90% or more (almost complete death))
- herbicidal effect, f: Beta vulgaris (beet) (Beta vulgaris (beet) [16]): 5 (Herbicidal rate 90% or more (almost complete death))
- herbicidal effect, L: Polygonum blumei (Polygonum blumei [17]): 5 (Herbicidal rate 90% or more (almost complete death))
- herbicidal effect, K: Chenopodium album (Chenopodium album [18]): 5 (Herbicidal rate 90% or more (almost complete death))
- herbicidal effect, F: Avena fatua (Avena fatua [19]): 4 (Herbicidal rate 70% or more and less than 90%)
- herbicidal effect, b: corn (Zea mays) (corn (Zea mays) [20]): 4 (Herbicidal rate 70% or more and less than 90%)
- herbicidal effect, c: soybean (Glycine max) (soybean (Glycine max) [21]): 3 (Herbicidal rate 40% or more and less than 70%)
- herbicidal effect, H: Abutilon avicennae (Abutilon avicennae [22]): 4 (Herbicidal rate 70% or more and less than 90%)
- herbicidal effect, D: Digitaria adscendes (Digitaria adscendes [23]): 4 (Herbicidal rate 70% or more and less than 90%)
- herbicidal effect, M: Stellaria media (Stellaria media [24]): 5 (Herbicidal rate 90% or more (almost complete death))
- herbicidal effect, J: Amaranthus retroflexus (Amaranthus retroflexus [25]): 5 (Herbicidal rate 90% or more (almost complete death))
- herbicidal effect, I: Ambrosia elatior (Ambrosia elatior [26]): 5 (Herbicidal rate 90% or more (almost complete death))
- herbicidal effect, A: Echinochloa crus-galli (Echinochloa crus-galli [27]): 4 (Herbicidal rate 70% or more and less than 90%)
- herbicidal effect, G: Black-grass (Black-grass [28]): 5 (Herbicidal rate 90% or more (almost complete death))
- herbicidal effect, E: Setaria viridis (Setaria viridis [29]): 4 (Herbicidal rate 70% or more and less than 90%)
- herbicidal effect, e: Triticum aestivum (wheat) [30]: 5 (Herbicidal rate 90% or more (almost complete death))
- herbicidal effect, f: Beta vulgaris (beet) (Beta vulgaris (beet) [31]): 5 (Herbicidal rate 90% or more (almost complete death))
- herbicidal effect, L: Polygonum blumei (Polygonum blumei [32]): 5 (Herbicidal rate 90% or more (almost complete death))
- herbicidal effect, C: Monochoria vaginalis (Monochoria vaginalis [33]): 5 (Herbicidal rate 90% or more (almost complete death))
- herbicidal effect, A: Echinochloa crus-galli (Echinochloa crus-galli [34]): 5 (Herbicidal rate 90% or more (almost complete death))
- herbicidal effect, B: Scirpus juncoides (Scirpus juncoides [35]): 5 (Herbicidal rate 90% or more (almost complete death))
- herbicidal effect, C: Monochoria vaginalis (Monochoria vaginalis [36]): 5 (Herbicidal rate 90% or more (almost complete death))
- herbicidal effect, A: Echinochloa crus-galli (Echinochloa crus-galli [37]): 5 (Herbicidal rate 90% or more (almost complete death))
- herbicidal effect, B: Scirpus juncoides (Scirpus juncoides [38]): 5 (Herbicidal rate 90% or more (almost complete death))
